16 compounds from PubChem BioAssay (NCI) can be followed below.

Holding throughout (assay): DTP human tumour cell line panel, 48 h
Assay [1] deals with SNB-19 CNS.
Assay [2] relates to SN12C renal.
Assay [3] relates to MDA-MB-435.
Assay [4] concerns HOP-62 NSCLC.
The test system of assay [5] is OVCAR-4 ovarian.
For assay [6], the system named is CAKI-1 renal.
Assay [7] has as its system SK-MEL-28 melanoma.
Assay [8] relates to SK-MEL-2 melanoma.
Assay [9] relates to A498 renal.
Assay [10] concerns MALME-3M melanoma.

SMILES strings stand for the structures.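 Assay format: 96-well plates, 48-hour exposure. The concentration for 50% growth inhibition is given as GI50. TGI is the concentration that stops growth completely.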

Regarding `COc1cc(/C=C/c2cc(/C=C/c3ccc(O)c(OC)c3)n(C(=O)Nc3ccc(Cl)cc3)n2)ccc1O`, the GI50 is 0.664 µM in assay [1]; 0.455 µM in [2]; 0.149 µM in assay [3]; 0.537 µM in assay [4]; 0.803 µM in assay [5]; 0.401 µM in assay [6]. The GI50 in assay [7] was 1.07 µM; in assay [8], 0.403 µM; in [9] it was 1.84 µM; in assay [10] it was 0.76 µM. For the same compound, the TGI was 11.1 µM in assay [1]; 21.6 µM in [2]; 0.392 µM in assay [3]; 1.85 µM in [4]; 5.73 µM in assay [5]; 36.6 µM in assay [6]. The concentration for total growth inhibition (TGI) in assay [7] is 4.07 µM; in assay [8], 2.01 µM; in assay [9], 5.13 µM; in [10], 3.96 µM.

Regarding `C[C@]12CCNC(=O)C=C1CC[C@@H]1C2CC[C@@]2(C)C1CC[C@@H]2OC(=O)COc1ccc(N(CCCl)CCCl)cc1` (some centres undefined), the TGI in [1] is 50.7 µM; in assay [2], 21.8 µM; in [3], 74.5 µM; in [4], 22.2 µM; in [5] it was 20.5 µM; in [6], 23 µM. Further, the TGI worked out at 36.3 µM in [7], 44.4 µM in assay [8], 36.1 µM in [9] and 24.6 µM in [10].

Regarding `CC1=C(C)C2(O)C(=C(C)C1=O)/C(=C(/O)c1ccccc1)c1nc3ccccc3n12` (centres undefined), the GI50 in [1] was 19.7 µM; in assay [2], 19.3 µM; in assay [3], 17.3 µM; in assay [4] it was 21.9 µM; in assay [5], 13.5 µM; in assay [6] it was 17.3 µM. The GI50 is 20.6 µM in assay [7], 19.4 µM in [8], 23.7 µM in [9] and 19.1 µM in [10]. In addition, the TGI in assay [1] was 46.9 µM; in assay [2] it was 34.6 µM; in assay [3], 35.1 µM; in assay [4] it was 48.7 µM; in [5], 27.1 µM; in [6], 55.9 µM. The TGI in assay [7] stood at 49.4 µM; in assay [8] it was 40 µM; in assay [9], 45.4 µM; in [10], 43.9 µM.

Consider `CCOC(=O)c1cnn2c3ccccc3n(S(=O)(=O)c3ccc(OC)cc3)c12`, for which the GI50 in assay [1] is 0.712 µM; in assay [2], 0.625 µM; in assay [3], 0.0473 µM; in [4], 0.523 µM; in assay [5], 1.58 µM; in assay [6], 0.204 µM. Further, the GI50 is 5.98 µM in [7], 4.03 µM in [8], 0.209 µM in assay [9] and 0.598 µM in [10]. Moreover, the TGI is more than 100 µM in [1]; more than 57.5 µM in assay [2]; more than 100 µM in assay [3]; more than 100 µM in assay [4]; more than 100 µM in [5]; more than 83.7 µM in assay [6]. Besides, the TGI in assay [7] is more than 100 µM; in assay [8], more than 100 µM; in assay [9], 0.764 µM; in [10] it was more than 100 µM.

Take `Cc1cc(Nc2cc(N3CCN(C)CC3)nc(Sc3ccc(NC(=O)C4CC4)cc3)n2)n[nH]1`: the GI50 is more than 10 µM in assay [1]; 3.59 µM in [2]; 2.11 µM in assay [3]; 2.99 µM in assay [4]; more than 10 µM in [5]; 4.27 µM in assay [6]. Moreover, the GI50 in assay [7] was 3.47 µM; in [8], 5.51 µM; in assay [9], 1.74 µM; in assay [10], 4.85 µM. Further, the TGI in assay [1], in assay [2], in [3], in assay [4], in [5] and in assay [6] was more than 10 µM in each case. Moreover, the TGI was more than 10 µM in [7], more than 10 µM in assay [8], 8.38 µM in assay [9] and more than 10 µM in assay [10].

For `Cc1ccc(NCCN(C)C)c2c(=O)c3ccccc3sc12`, the GI50 was 2.24 µM in assay [1]; 2.45 µM in assay [2]; 1.71 µM in [3]; 1.55 µM in assay [4]; 2.67 µM in assay [5]; 2.08 µM in assay [6]. The GI50 was 1.71 µM in assay [7], 2 µM in assay [8], 1.14 µM in assay [9] and 1.66 µM in [10]. Moreover, the TGI in assay [1] turned out to be 6.63 µM; in assay [2], 9.61 µM; in assay [3] it was 3.47 µM; in assay [4], 3.11 µM; in assay [5], 8.76 µM; in assay [6] it was 7.56 µM. Also, the TGI was found to be 3.11 µM in assay [7], 4.31 µM in assay [8], 2.52 µM in [9] and 3.28 µM in assay [10].

For `O=C(/C=C/C12c3ccccc3C(c3ccccc31)C1C(=O)NC(=O)C12)c1ccc(Cl)cc1` (centres undefined), the GI50 in [1] was 1.58 µM; in assay [2], 1.56 µM; in assay [3], 1.68 µM; in assay [4] it was 1.69 µM; in assay [5], 1.42 µM; in assay [6], 1.24 µM. Further, the GI50 in [7] is 1.8 µM; in assay [8] it was 1.81 µM; in [9] it was 1.28 µM; in [10] it was 1.51 µM. In addition, the TGI was determined as 3.04 µM in [1]; 3.26 µM in assay [2]; 3.5 µM in assay [3]; 3.39 µM in assay [4]; 2.76 µM in assay [5]; 2.52 µM in assay [6]. The TGI in [7] came to 3.37 µM; in assay [8] it was 3.71 µM; in [9], 2.6 µM; in assay [10] it was 2.88 µM.

For the compound `NC(=Nc1ccc(N)cc1)C(N)=Nc1ccc(N)cc1`, the GI50 in [1] is more than 100 µM; in assay [2] it was more than 100 µM; in assay [3], more than 100 µM; in assay [4], more than 100 µM; in assay [5], more than 100 µM; in [6], 52.6 µM. The GI50 in [7] was more than 100 µM; in [8], more than 100 µM; in assay [9], 25.3 µM; in assay [10], 45.9 µM. Further, the TGI in [1], in assay [2], in assay [3], in assay [4], in assay [5] and in assay [6] was more than 100 µM in each case. Moreover, the TGI in assay [7], in assay [8], in assay [9] and in [10] was more than 100 µM throughout.

In the case of `CN(C)c1ccc(/C=c2/c3ccccc3n3c2c2cc(F)ccc2[n+]3C)cc1`, the GI50 in assay [1] is 10.2 µM; in [3], 3.84 µM; in assay [4], 8.6 µM; in [5] it was 15.7 µM; in [6] it was 11.6 µM; in [7], 3.55 µM. The GI50 is 3.54 µM in [8], 5.24 µM in assay [9] and 1.87 µM in [10]. Also, the TGI in [1] was 44.3 µM; in assay [2], 2.7 µM; in assay [3], 11.9 µM; in [4] it was 26.4 µM; in assay [5] it was 34.2 µM; in [6], 29.4 µM. For the same compound, the TGI in assay [7] amounted to 14.1 µM; in [8] it was 11.1 µM; in assay [9], 17.4 µM; in [10] it was 7.54 µM.

With `O=C(Nc1cc(Oc2cc(F)c(NC(=O)C3(C(=O)Nc4ccc(F)cc4)CC3)cc2F)ccn1)C1CC1`, the GI50 in [1] is 3.75 µM; in assay [2] it was 2.68 µM; in assay [3] it was 1.53 µM; in assay [4] it was 2.76 µM; in assay [5], 3.93 µM; in assay [6], 3.77 µM. Besides, the GI50 in assay [7] was 1.64 µM; in [8], 1.35 µM; in assay [9], 2.41 µM; in [10], 0.324 µM. Besides, the TGI in assay [1] is more than 100 µM; in assay [2], more than 100 µM; in assay [3], 4.26 µM; in [4], 8.71 µM; in assay [5], more than 30.8 µM; in assay [6], more than 100 µM. The TGI is 6.33 µM in assay [7], 3.64 µM in assay [8], 5.18 µM in assay [9] and 2.47 µM in assay [10].

As to `COc1ccc(C(CC(=O)c2ccccc2)C(C(=O)c2ccccc2)C(c2ccc(OC)cc2)C2C(=O)NC(=S)NC2=O)cc1` (centres undefined), the GI50 was 24.9 µM in assay [1]; 12.8 µM in [2]; 10.6 µM in assay [3]; 21.1 µM in [4]; 30.3 µM in assay [5]; 2.53 µM in assay [6]. The GI50 was 16 µM in assay [7], 13.8 µM in assay [8], 3.19 µM in [9] and 19.8 µM in [10]. In addition, the TGI in assay [1] was more than 100 µM; in assay [2] it was 45.2 µM; in assay [3] it was 35.3 µM; in assay [4] it was more than 100 µM; in assay [5], more than 100 µM; in assay [6], 11.8 µM. In addition, the TGI was more than 100 µM in assay [7], 49 µM in assay [8], 23.2 µM in assay [9] and 58.4 µM in [10].

As for `CC(=O)OC1CC[C@@]2(C)C(CC[C@]3(C)C2CC=C2[C@@H]4C(C)[C@H](C)CCC4(C)CCC23C)[C@@]1(C)C(=O)O` (some centres undefined), the TGI came out at 53.1 µM in [1]; 53.2 µM in [2]; 40.6 µM in assay [3]; 43.1 µM in assay [4]; 66.7 µM in assay [5]; 35.1 µM in assay [6]. Besides, the TGI in assay [7] is 52 µM; in assay [8], 50.2 µM; in assay [9], 37.2 µM; in [10], 49 µM.

In the case of `COc1cccc2c1C(=O)OC2c1cccc2ccccc12` (centres undefined), the TGI in [1] was more than 100 µM; in [2] it was more than 100 µM; in assay [3], more than 100 µM; in assay [4], 62.4 µM; in assay [5], more than 88.7 µM; in assay [6] it was more than 100 µM. Also, the TGI in [7], in [8], in assay [9] and in assay [10] was more than 100 µM throughout.

In the case of `c1ccc([As]=[As]c2ccccc2)cc1` (centres undefined), the GI50 is 1.42 µM in assay [1]; 1.21 µM in assay [2]; 1.27 µM in [3]; 1.78 µM in assay [4]; 1.08 µM in [5]; 1.31 µM in [6]. Further, the GI50 in assay [7] was 0.922 µM; in assay [8], 1.62 µM; in assay [9] it was 0.668 µM; in assay [10], 1.29 µM. In addition, the TGI in assay [1] was 2.8 µM; in assay [2] it was 3.07 µM; in [3], 2.72 µM; in assay [4] it was 3.33 µM; in [5], 2.43 µM; in [6], 3.22 µM. Further, the TGI in assay [7] was determined as 2.32 µM; in assay [8] it was 3.47 µM; in assay [9] it was 2.34 µM; in assay [10], 3.23 µM.

Turning to `CCS(=O)(=O)c1ccc(OC)c(Nc2ncc(-c3ccccc3Cl)o2)c1`, the GI50 in [1] is more than 21.9 µM; in assay [2], 14.9 µM; in assay [3] it was 6.73 µM; in [4], 10.1 µM; in assay [5] it was 13 µM; in assay [6], 24.3 µM. Further, the GI50 in assay [7] is more than 25 µM; in assay [8], 9.06 µM; in [9] it was 3.17 µM; in assay [10], more than 25 µM. Further, the TGI was more than 25 µM in assay [1]; more than 25 µM in assay [2]; more than 22.1 µM in assay [3]; more than 25 µM in assay [4]; more than 25 µM in assay [5]; more than 25 µM in assay [6]. In addition, the TGI in assay [7] is more than 25 µM; in [8] it was more than 21.6 µM; in assay [9] it was 12.1 µM; in assay [10], more than 25 µM.

`Cn1c(=S)c2[nH]c(SCCN3C(=O)c4ccccc4C3=O)nc2n(C)c1=O`: the TGI in assay [1], in assay [2], in assay [3], in assay [4], in assay [5] and in assay [6] was more than 100 µM throughout. In addition, the concentration for total growth inhibition (TGI) in assay [7], in assay [8], in [9] and in assay [10] was more than 100 µM in each case.
